{"source": "patent US10226471B2", "about": "“Modified-release dosage forms of 5-HT2C agonists useful for weight management” (Arena Pharmaceuticals, Inc., priority 2010, dated 2019)", "key": {"[1]": {"details": "not told"}, "[2]": {"details": "continuous subcutaneous infusion 0.630 mg/kg/h, Day 28, mean", "protocol": "(§3) On Day 28, animals were placed in Culex® cages for automated blood collection. […] Analyte plasma concentrations were determined by LC/MS/MS. Noncompartmental PK analysis was performed using WinNonlin® (Pharsight®, Mountain View, Calif.) to determine t1/2, Cmaxss, Css and AUClast."}, "clinical": {"assay": "clinical", "details": "human, brain (lumbar cerebrospinal fluid measured) and plasma, oral, 10 mg"}, "[3]": {"assay": "Pharmacokinetics parameters from an open-label, single-dose, cross-over clinical study (GastroPlus input)", "assay_type": "in vivo", "details": "human, oral, 10 mg, clinical study in the fed and fasted state", "description": "The GastroPlus™ software (Simulations Plus, Inc., Lancaster, Calif.) was used to simulate the pharmacokinetics of Compound 1 from immediate-release and modified-release tablets. The release profile follows first order release kinetics and T80% is approximately 8 hours. The lower limit was not defined. Pharmacokinetics parameters of Compound 1 were obtained from an open-label, single-dose, cross-over clinical study in the fed and fasted state. Input variables and default values for GastroPlus™ simulation were as follows"}, "[4]": {"details": "subcutaneous Alzet pump, 1 mg/kg/h for four days; mean"}, "in vivo [5]": {"assay": "in vivo", "details": "male, SD, rat, plasma", "protocol": "as §3"}, "in vivo [6]": {"assay": "in vivo", "details": "male, Sprague-Dawley, rat, plasma, po, 24 mg/kg/day"}, "[7]": {"assay": "Adverse events in BLOOM and BLOSSOM (Table A)", "assay_type": "in vivo, human", "details": "10 mg BID, N = 3195", "description": "(§1) The safety of Compound 1 has been evaluated in three randomized, double-blind, placebo-controlled trials, one of 2 years duration (“BLOOM” trial) and two of 1 year duration (“BLOSSOM” and “BLOOM-DM” trials). A total of 3451 patients were exposed to Compound 1 10 mg twice daily for up to 1 year; 571 patients were exposed for up to 2 years; and an additional 896 patients were exposed to Compound 1 10 mg once daily for up to 1 year. The BLOOM-DM study included only patients with type 2 diabetes mellitus; BLOOM and BLOSSOM excluded patients with diabetes.\n(§2) The most common adverse reactions for non-diabetic patients treated with Compound 1 compared to placebo were headache, upper respiratory tract infection, nasopharyngitis, dizziness, and nausea. The most common adverse reactions for diabetic patients were hypoglycemia, headache, back pain, nasopharyngitis, and nausea. Adverse events that were reported by ≥5% of patients and were more frequently reported by patients taking Compound 1 compared to placebo are summarized in Table A (BLOOM and BLOSSOM) and Table B (BLOOM DM)."}, "[8]": {"assay": "Phase 3 clinical trials of lorcaserin for weight management"}, "[9]": {"assay": "Clinical trial of a single oral dose under fed and fasted conditions", "assay_type": "in vivo, human", "details": "single oral dose 10 mg", "description": "A clinical trial was performed to evaluate the safety and pharmacokinetic profile of a single oral dose of Compound 1 (10 mg) administered to healthy male and female subjects aged 18 to 60 years (inclusive) under fed and fasted conditions. […] Cmax was reduced by approximately 10% in the fed compared to fasted state, but a lack of food effect was not proven. […] Compound 1 was generally well tolerated when dosed in the fasted state and after a high-fat breakfast. There were a higher number of adverse events when dosed in the fasted state, (18 compared to 6) including two moderate intensity (nausea and headache) and one severe (vomiting) intensity events occurring in a single subject."}, "[10]": {"assay": "Adverse events in BLOOM-DM, patients with type 2 diabetes (Table B)", "assay_type": "in vivo, human", "details": "10 mg BID", "description": "as §1, §2"}, "[11]": {"assay": "Safety in three randomized, double-blind, placebo-controlled trials (BLOOM, BLOSSOM, BLOOM-DM): discontinuation due to adverse reactions", "assay_type": "in vivo, human", "description": "as §1\nThe discontinuation rate due to adverse reaction was 7.1% for non-diabetic patients and 8.6% for patients with type 2 diabetes receiving Compound 1. The most common adverse reactions leading to discontinuation more often among Compound 1 treated patients than placebo were headache (1.3% vs. 0.8%), depression (0.9% vs. 0.5%) and dizziness (0.7% vs. 0.2%)."}, "[12]": {"details": "phase 3 trial, after 12 months, ITT-LOCF"}}, "data": [{"smiles": "C[C@H]1CNCCc2ccc(Cl)cc21", "note": "[Compound 1]", "values": [{"measurement": "Papp", "setting": "[1]", "result": 3.54, "unit": "×10⁻⁶ cm/s"}, {"measurement": "Css, 0 to 21 h", "setting": "[2]", "result": 155, "unit": "ng/mL"}, {"measurement": "Kp", "setting": "clinical", "result": "< 1"}, {"measurement": "blood plasma ratio", "setting": "[3]; blood and plasma, read-out: Blood to plasma concentration ratio", "result": 1.3}, {"measurement": "clearance", "setting": "[3]; plasma", "result": 326, "unit": "mL/min"}, {"measurement": "Vd", "setting": "[3]; plasma, read-out: Apparent volume of distribution", "result": 307, "unit": "L"}, {"measurement": "Cl", "setting": "[4]", "result": "49.3 ± 4.83", "unit": "mL/min/kg"}, {"measurement": "Css from 42 to 90 hours", "setting": "[4]", "result": 340, "unit": "ng/mL"}, {"measurement": "AUC(0-t)", "setting": "in vivo [5]; po, 24 mg/kg/day", "result": 4170, "unit": "ng·h/mL"}, {"measurement": "Cmax", "setting": "in vivo [5]; po, 24 mg/kg/day", "result": 553, "unit": "ng/mL"}, {"measurement": "AUC(0-t)", "setting": "in vivo [5]; sc, 0.63 mg/kg/h", "result": 3630, "unit": "ng·h/mL"}, {"measurement": "Cmax", "setting": "in vivo [5]; sc, 0.63 mg/kg/h", "result": 213, "unit": "ng/mL"}, {"measurement": "AUC(0-inf)", "setting": "in vivo [6]", "result": 5210, "unit": "ng·h/mL"}, {"measurement": "AUC(0-t)", "setting": "in vivo [6]", "result": 5210, "unit": "ng·h/mL"}, {"measurement": "Cmax", "setting": "in vivo [6]", "result": 700, "unit": "ng/mL"}, {"measurement": "Tmax", "setting": "in vivo [6]", "result": 0.5, "unit": "h"}, {"measurement": "half-life", "setting": "in vivo [6]; t1/2, Day 6, oral gavage 24 mg/kg/day for 6 days, not fasted, composite profiles", "result": 4, "unit": "h"}, {"measurement": "Back pain, number of patients", "setting": "[7]", "result": 201}, {"measurement": "Back pain, patients (%)", "setting": "[7]", "result": "(6.3) %"}, {"measurement": "Constipation, number of patients", "setting": "[7]", "result": 186}, {"measurement": "Constipation, patients (%)", "setting": "[7]", "result": "(5.8) %"}, {"measurement": "Diarrhea, number of patients", "setting": "[7]", "result": 207}, {"measurement": "Diarrhea, patients (%)", "setting": "[7]", "result": "(6.5) %"}, {"measurement": "Dizziness, number of patients", "setting": "[7]", "result": 270}, {"measurement": "Dizziness, patients (%)", "setting": "[7]", "result": "(8.5) %"}, {"measurement": "Dry mouth, number of patients", "setting": "[7]", "result": 169}, {"measurement": "Dry mouth, patients (%)", "setting": "[7]", "result": "(5.3) %"}, {"measurement": "Fatigue, number of patients", "setting": "[7]", "result": 229}, {"measurement": "Fatigue, patients (%)", "setting": "[7]", "result": "(7.2) %"}, {"measurement": "Headache, number of patients", "setting": "[7]", "result": 537}, {"measurement": "Headache, patients (%)", "setting": "[7]", "result": "(16.8) %"}, {"measurement": "Nasopharyngitis, number of patients", "setting": "[7]", "result": 414}, {"measurement": "Nasopharyngitis, patients (%)", "setting": "[7]", "result": "(13.0) %"}, {"measurement": "Nausea, number of patients", "setting": "[7]", "result": 264}, {"measurement": "Nausea, patients (%)", "setting": "[7]", "result": "(8.3) %"}, {"measurement": "Upper respiratory tract infection, number of patients", "setting": "[7]", "result": 439}, {"measurement": "Upper respiratory tract infection, patients (%)", "setting": "[7]", "result": "(13.7) %"}, {"measurement": "Urinary tract infection, number of patients", "setting": "[7]", "result": 207}, {"measurement": "Urinary tract infection, patients (%)", "setting": "[7]", "result": "(6.5) %"}, {"measurement": "excess body weight lost", "setting": "[8]; first phase 3 trial, based on a normal BMI of 25", "result": "about one-third"}, {"measurement": "average weight loss", "setting": "[8]; [12]", "result": 12.7, "unit": "pounds"}, {"measurement": "average weight loss, of body weight", "setting": "[8]; [12]", "result": 5.8, "unit": "%"}, {"measurement": "average weight lost, of their weight", "setting": "[8]; pivotal phase 3 clinical trial program", "result": "about 8%"}, {"measurement": "patients achieved at least 10% weight loss", "setting": "[8]; pivotal phase 3 clinical trial program, treated for up to two years", "result": "over one-third"}, {"measurement": "average weight loss, top quartile of patients", "setting": "[8]; second phase 3 trial", "result": 35, "unit": "pounds"}, {"measurement": "average weight loss, top quartile of patients, of body weight", "setting": "[8]; second phase 3 trial", "result": 16, "unit": "%"}, {"measurement": "development of FDA-defined valvulopathy (echocardiograms)", "setting": "[8]; two-year treatment period", "result": "no apparent drug-related effect"}, {"measurement": "logP", "setting": "physchem", "result": 2.56}, {"measurement": "pKa", "setting": "physchem", "result": 9.53}, {"measurement": "t1/2", "setting": "Day 6, oral gavage 24 mg/kg/day for 6 days, not fasted, composite profiles, 24 mg/kg/day", "result": 4.02, "unit": "h"}, {"measurement": "Css = AUC24 hr ÷ dosing interval (24 h)", "setting": "calculated for the infusion rate of the chronic study", "result": 213, "unit": "ng/mL"}, {"measurement": "number of adverse events", "setting": "[9]; after a high-fat breakfast", "result": 6}, {"measurement": "number of adverse events", "setting": "[9]; fasted state", "result": 18}, {"measurement": "food effect on overall exposure", "setting": "[9]; fed vs fasted", "result": "no food effect on overall exposure"}, {"measurement": "reduction of Cmax in the fed compared to fasted state", "setting": "[9]; high-fat breakfast", "result": "approximately 10%"}, {"measurement": "time of maximum plasma concentrations, fed compared to fasted", "setting": "[9]; high-fat breakfast", "result": "statistically significant delay"}, {"measurement": "Back pain, patients (%)", "setting": "[10]", "result": "(11.7) %"}, {"measurement": "Cough, patients (%)", "setting": "[10]", "result": "(8.2) %"}, {"measurement": "Dizziness, patients (%)", "setting": "[10]", "result": "(7.0) %"}, {"measurement": "Fatigue, patients (%)", "setting": "[10]", "result": "(7.4) %"}, {"measurement": "Gastroenteritis viral, patients (%)", "setting": "[10]", "result": "(7.0) %"}, {"measurement": "Headache, patients (%)", "setting": "[10]", "result": "(14.5) %"}, {"measurement": "Back pain, number of patients", "setting": "[10]; N = 3195", "result": 30}, {"measurement": "Cough, number of patients", "setting": "[10]; N = 3195", "result": 21}, {"measurement": "Dizziness, number of patients", "setting": "[10]; N = 3195", "result": 18}, {"measurement": "Fatigue, number of patients", "setting": "[10]; N = 3195", "result": 19}, {"measurement": "Gastroenteritis viral, number of patients", "setting": "[10]; N = 3195", "result": 18}, {"measurement": "Headache, number of patients", "setting": "[10]; N = 3195", "result": 37}, {"measurement": "Hypertension, number of patients", "setting": "[10]; N = 3195", "result": 13}, {"measurement": "Hypertension, patients (%)", "setting": "[10]; N = 3195", "result": "(5.1) %"}, {"measurement": "Hypoglycemia (including asymptomatic), number of patients", "setting": "[10]; N = 3195", "result": 75}, {"measurement": "Hypoglycemia (including asymptomatic), patients (%)", "setting": "[10]; N = 3195", "result": "(29.3) %"}, {"measurement": "Hypoglycemia, symptomatic, number of patients", "setting": "[10]; N = 3195", "result": 19}, {"measurement": "Hypoglycemia, symptomatic, patients (%)", "setting": "[10]; N = 3195", "result": "(7.4) %"}, {"measurement": "Influenza, number of patients", "setting": "[10]; N = 3195", "result": 15}, {"measurement": "Influenza, patients (%)", "setting": "[10]; N = 3195", "result": "(5.9) %"}, {"measurement": "Nasopharyngitis, number of patients", "setting": "[10]; N = 3195", "result": 29}, {"measurement": "Nasopharyngitis, patients (%)", "setting": "[10]; N = 3195", "result": "(11.3) %"}, {"measurement": "Nausea, number of patients", "setting": "[10]; N = 3195", "result": 24}, {"measurement": "Nausea, patients (%)", "setting": "[10]; N = 3195", "result": "(9.4) %"}, {"measurement": "Procedural pain, number of patients", "setting": "[10]; N = 3195", "result": 13}, {"measurement": "Procedural pain, patients (%)", "setting": "[10]; N = 3195", "result": "(5.1) %"}, {"measurement": "Urinary tract infection, number of patients", "setting": "[10]; N = 3195", "result": 23}, {"measurement": "Urinary tract infection, patients (%)", "setting": "[10]; N = 3195", "result": "(9.0) %"}, {"measurement": "depression leading to discontinuation", "setting": "[11]; Compound 1 treated patients", "result": 0.9, "unit": "%"}, {"measurement": "dizziness leading to discontinuation", "setting": "[11]; Compound 1 treated patients", "result": 0.7, "unit": "%"}, {"measurement": "headache leading to discontinuation", "setting": "[11]; Compound 1 treated patients", "result": 1.3, "unit": "%"}, {"measurement": "discontinuation rate due to adverse reaction", "setting": "[11]; non-diabetic patients", "result": 7.1, "unit": "%"}, {"measurement": "discontinuation rate due to adverse reaction", "setting": "[11]; patients with type 2 diabetes", "result": 8.6, "unit": "%"}]}]}
